Source: patent US10308650B2, “Pesticidally active tetracyclic derivatives with sulfur containing substituents” (Syngenta Participations AG, priority 2014, dated 2019)

Experiments:
Type in all cases: in vivo
[1] = test system: Myzus persicae (Green Peach Aphid); experiment: Activity against Myzus persicae: feeding/contact activity; conditions: foliar, 144 h, application rate of 200 ppm, sunflower leaf discs, aphid population of mixed ages, 6 days after infestation, read-out: mortality
Procedure: Example B5: Activity Against Myzus persicae (Green Peach Aphid): Feeding/Contact Activity
Sunflower leaf discs were placed onto agar in a 24-well microtiter plate and sprayed with aqueous test solutions prepared from 10,000 ppm DMSO stock solutions. After drying, the leaf discs were infested with an aphid population of mixed ages. The samples were assessed for mortality 6 days after infestation.

[2] = test system: Euschistus heros (Neotropical Brown Stink Bug); experiment: Activity against Euschistus heros; conditions: 120 h, application rate of 200 ppm, soybean leaves, N2 nymphs, 5 days after infestation, read-out: effect in at least one of the two categories (mortality or growth inhibition)
Procedure: Example B3: Activity Against Euschistus heros (Neotropical Brown Stink Bug)
Soybean leaves on agar in 24-well microtiter plates were sprayed with aqueous test solutions prepared from 10,000 ppm DMSO stock solutions. After drying the leaves were infested with N2 nymphs. The samples were assessed for mortality and growth inhibition in comparison to untreated samples 5 days after infestation.

[3] = test system: Myzus persicae (Green Peach Aphid); experiment: Activity against Myzus persicae: systemic activity; conditions: 144 h, test rate of 24 ppm, roots of infested pea seedlings in test solution, 6 days, read-out: mortality
Procedure: Example B6: Activity Against Myzus persicae (Green Peach Aphid). Systemic Activity
Roots of pea seedlings infested with an aphid population of mixed ages were placed directly into aqueous test solutions prepared from 10,000 DMSO stock solutions. The samples were assessed for mortality 6 days after placing seedlings into test solutions.

[4] = test system: Diabrotica balteata (Corn Root Worm); experiment: Activity against Diabrotica balteata; conditions: 96 h, application rate of 200 ppm, maize sprouts, L2 larvae, 4 days after infestation, read-out: effect in at least one of the two categories (mortality or growth inhibition)
Procedure: Example B2: Activity Against Diabrotica balteata (Corn Root Worm)
Maize sprouts placed onto an agar layer in 24-well microtiter plates were treated with aqueous test solutions prepared from 10,000 ppm DMSO stock solutions by spraying. After drying, the plates were infested with L2 larvae (6 to 10 per well). The samples were assessed for mortality and growth inhibition in comparison to untreated samples 4 days after infestation.

[5] = test system: Plutella xylostella (Diamond Back Moth); experiment: Activity against Plutella xylostella; conditions: 120 h, application rate of 200 ppm, artificial diet, L2 larvae, 5 days after infestation, read-out: effect in at least one of the two categories (mortality or growth inhibition)
Procedure: Example B8: Activity Against Plutella xylostella (Diamond Back Moth)
24-well microtiter plates with artificial diet were treated with aqueous test solutions prepared from 10,000 ppm DMSO stock solutions by pipetting. After drying, the plates were infested with L2 larvae (10 to 15 per well). The samples were assessed for mortality and growth inhibition in comparison to untreated samples 5 days after infestation.

[6] = test system: Spodoptera littoralis (Egyptian Cotton Leaf Worm); experiment: Activity against Spodoptera littoralis (lettuce, uptake by the roots from agar); conditions: 144 h, test rate of 12.5 ppm, lettuce grown on treated agar, Spodoptera eggs, 6 days after infestation, read-out: effect in at least one of the three categories (mortality, anti-feeding, or growth inhibition)
Excerpt: Example B10: Activity Against Spodoptera littoralis (Egyptian Cotton Leaf Worm)
Test compounds were applied by pipette from 10,000 ppm DMSO stock solutions into 24-well plates and mixed with agar. Lettuce seeds were placed onto the agar and the multi well plate was closed by another plate which contained also agar. After 7 days the compound was absorbed by the roots and the lettuce grew into the lid plate. The lettuce leaves were then cut off into the lid plate. Spodoptera eggs were pipetted through a plastic stencil onto a humid gel blotting paper and the lid plate was closed with it. The samples were assessed for mortality, anti-feedant effect and growth inhibition in comparison to untreated samples 6 days after infestation.

[7] = test system: Spodoptera littoralis (Egyptian Cotton Leaf Worm); experiment: Activity against Spodoptera littoralis (cotton leaf discs, spray); conditions: foliar, 72 h, application rate of 200 ppm, cotton leaf discs, L1 larvae, 3 days after infestation, read-out: control (mortality, anti-feeding effect, growth inhibition)
Procedure: Example B9: Activity Against Spodoptera littoralis (Egyptian Cotton Leaf Worm)
Cotton leaf discs were placed onto agar in 24-well microtiter plates and sprayed with aqueous test solutions prepared from 10,000 ppm DMSO stock solutions. After drying the leaf discs were infested with five L1 larvae. The samples were assessed for mortality, anti-feeding effect, and growth inhibition in comparison to untreated samples 3 days after infestation. Control of Spodoptera littoralis by a test sample is given when at least one of the categories mortality, anti-feedant effect, and growth inhibition is higher than the untreated sample.

[8] = test system: Bemisia tabaci (Cotton White Fly); experiment: Activity against Bemisia tabaci: feeding/contact activity; conditions: foliar, 144 h, application rate of 200 ppm, cotton leaf discs, adult white flies, 6 days after incubation
Procedure: Example B1: Activity Against Bemisia tabaci (Cotton White Fly): Feeding/Contact Activity
Cotton leaf discs were placed on agar in 24-well microtiter plates and sprayed with aqueous test solutions prepared from 10,000 ppm DMSO stock solutions. After drying the leaf discs were infested with adult white flies. The samples were checked for mortality 6 days after incubation.

CCS(=O)(=O)c1cc2ncn(C)c2cc1-c1nc2cc(C(F)(F)F)ncc2n1C (single isomer, unassigned) [Compound A11, 2-(6-ethylsulfonyl-3-methyl-benzimidazol-5-yl)-3-methyl-6-(trifluoromethyl)imidazo[4,5-c]pyridine]
≥ 80%: mortality at 200 ppm [1] | percent effect (mortality or growth inhibition) at 200 ppm [2] | mortality at 24 ppm [3] | percent effect (mortality or growth inhibition) at 200 ppm [4]

CCS(=O)(=O)c1cc2c(cc1-c1nc3cc(C(F)(F)F)ncc3n1C)ncn2C (single isomer, unassigned) [Compound A12, 2-(6-ethylsulfonyl-1-methyl-benzimidazol-5-yl)-3-methyl-6-(trifluoromethyl)imidazo[4,5-c]pyridine]
≥ 80%: mortality at 200 ppm [1] | percent effect (mortality or growth inhibition) at 200 ppm [2] | mortality at 24 ppm [3] | percent effect (mortality or growth inhibition) at 200 ppm [5]

CCS(=O)(=O)c1cc2nc(C)n(C)c2cc1-c1nc2cc(C(F)(F)F)ncc2n1C (single isomer, unassigned) [Compound A14, 2-(6-ethylsulfonyl-2,3-dimethyl-benzimidazol-5-yl)-3-methyl-6-(trifluoromethyl)imidazo[4,5-c]pyridine]
≥ 80%: mortality at 200 ppm [1] | percent effect (mortality or growth inhibition) at 200 ppm [2]

CCS(=O)(=O)c1cc2c(cc1-c1nc3cc(C(F)(F)F)ncc3n1C)nc(C)n2C (single isomer, unassigned) [Compound A15, 2-(6-ethylsulfonyl-1,2-dimethyl-benzimidazol-5-yl)-3-methyl-6-(trifluoromethyl)imidazo[4,5-c]pyridine]
≥ 80%: mortality at 200 ppm [1] | percent effect (mortality or growth inhibition) at 200 ppm [2] | mortality at 24 ppm [3] | percent effect (mortality or growth inhibition) at 200 ppm [5]

CCSc1cc2ccccc2cc1-c1nc2cc(C(F)(F)F)cnc2n1C [Compound A1, 2-(3-ethylsulfanyl-2-naphthyl)-3-methyl-6-(trifluoromethyl)imidazo[4,5-b]pyridine]
≥ 80%: percent effect (mortality or growth inhibition) at 200 ppm [2] | percent effect (mortality or growth inhibition) at 200 ppm [4]

CC[S+]([O-])c1cc2ccccc2cc1-c1nc2cc(C(F)(F)F)cnc2n1C (centres unmarked) [Compound A2, 2-(3-ethylsulfinyl-2-naphthyl)-3-methyl-6-(trifluoromethyl)imidazo[4,5-b]pyridine]
≥ 80%: percent effect (mortality or growth inhibition) at 200 ppm [2] | percent effect (mortality or growth inhibition) at 200 ppm [4]

CCS(=O)(=O)c1cc2nc(-c3ccccc3)[nH]c2cc1-c1nc2cc(C(F)(F)F)ncc2n1C [Compound A16, 2-(6-ethylsulfonyl-2-phenyl-3H-benzimidazol-5-yl)-3-methyl-6-(trifluoromethyl)imidazo[4,5-c]pyridine]
≥ 80%: percent effect (mortality or growth inhibition) at 200 ppm [5]

CCS(=O)(=O)c1cc2nn[nH]c2cc1-c1nc2cc(C(F)(F)F)ncc2n1C [Compound A17, 2-(6-ethylsulfonyl-3H-benzotriazol-5-yl)-3-methyl-6-(trifluoromethyl)imidazo[4,5-c]pyridine]
≥ 80%: percent effect (mortality or growth inhibition) at 200 ppm [2]

CCS(=O)(=O)c1cc2nc(C)sc2cc1-c1nc2cc(C(F)(F)F)ncc2n1C [Compound A19, 5-ethylsulfonyl-2-methyl-6-[3-methyl-6-(trifluoromethyl)imidazo[4,5-c]pyridin-2-yl]-1,3-benzothiazole]
≥ 80%: percent effect (mortality, anti-feeding or growth inhibition) at 12.5 ppm [6] | mortality at 200 ppm [1] | mortality at 200 ppm [7] | percent effect (mortality or growth inhibition) at 200 ppm [2] | mortality at 24 ppm [3] | percent effect (mortality or growth inhibition) at 200 ppm [4]

CCS(=O)(=O)c1cc2nccnc2cc1-c1nc2cc(C(F)(F)F)ncc2n1C [Compound A20, 6-ethylsulfonyl-7-[3-methyl-6-(trifluoromethyl)imidazo[4,5-c]pyridin-2-yl]quinoxaline]
≥ 80%: mortality at 24 ppm [3] | percent effect (mortality or growth inhibition) at 200 ppm [4]

CCSc1cc2cnccc2cc1-c1nc2cc(C(F)(F)F)ncc2n1C [Compound A25, 7-ethylsulfanyl-6-[3-methyl-6-(trifluoromethyl)imidazo[4,5-c]pyridin-2-yl]isoquinoline]
≥ 80%: percent effect (mortality or growth inhibition) at 200 ppm [2] | percent effect (mortality or growth inhibition) at 200 ppm [4]

CCS(=O)(=O)c1cc2cnccc2cc1-c1nc2cc(C(F)(F)F)ncc2n1C [Compound A26, 7-ethylsulfonyl-6-[3-methyl-6-(trifluoromethyl)imidazo[4,5-c]pyridin-2-yl]isoquinoline]
≥ 80%: percent effect (mortality or growth inhibition) at 200 ppm [2]

CCS(=O)(=O)c1cc2c[n+]([O-])ccc2cc1-c1nc2cc(C(F)(F)F)ncc2n1C [Compound A27, 7-ethylsulfonyl-6-[3-methyl-6-(trifluoromethyl)imidazo[4,5-c]pyridin-2-yl]-2-oxido-isoquinolin-2-ium]
≥ 80%: mortality at 200 ppm [1] | percent effect (mortality or growth inhibition) at 200 ppm [2] | mortality at 24 ppm [3] | mortality at 200 ppm [8]

CCS(=O)(=O)c1cc2ncsc2cc1-c1nc2cc(C(F)(F)F)ncc2n1C [Compound A30, 5-ethylsulfonyl-6-[3-methyl-6-(trifluoromethyl)imidazo[4,5-c]pyridin-2-yl]-1,3-benzothiazole]
≥ 80%: percent effect (mortality or growth inhibition) at 200 ppm [2] | percent effect (mortality or growth inhibition) at 200 ppm [5] | percent effect (mortality or growth inhibition) at 200 ppm [4]

CCS(=O)(=O)c1cc2[nH]c(C(F)(F)F)nc2nc1-c1nc2cc(C(F)(F)F)ncc2n1C [Compound A34, 6-ethylsulfonyl-5-[3-methyl-6-(trifluoromethyl)imidazo[4,5-c]pyridin-2-yl]-2-(trifluoromethyl)-1H-imidazo[4,5-b]pyridine]
≥ 80%: percent effect (mortality or growth inhibition) at 200 ppm [2] | mortality at 24 ppm [3] | percent effect (mortality or growth inhibition) at 200 ppm [4]

CCS(=O)(=O)c1cc2nnn(C)c2cc1-c1nc2cc(C(F)(F)F)ncc2n1C [Compound A35, 5-ethylsulfonyl-1-methyl-6-[3-methyl-6-(trifluoromethyl)imidazo[4,5-c]pyridin-2-yl]benzotriazole]
≥ 80%: mortality at 200 ppm [1] | mortality at 24 ppm [3] | percent effect (mortality or growth inhibition) at 200 ppm [4]

CCS(=O)(=O)c1cc2c(cc1-c1nc3cc(C(F)(F)F)ncc3n1C)nnn2C [Compound A36, 6-ethylsulfonyl-1-methyl-5-[3-methyl-6-(trifluoromethyl)imidazo[4,5-c]pyridin-2-yl]benzotriazole]
≥ 80%: mortality at 200 ppm [1] | percent effect (mortality or growth inhibition) at 200 ppm [2] | mortality at 24 ppm [3] | percent effect (mortality or growth inhibition) at 200 ppm [5] | percent effect (mortality or growth inhibition) at 200 ppm [4]

CCS(=O)(=O)c1cc2cc(C#N)ccc2nc1-c1nc2cc(C(F)(F)F)ncc2n1C [Compound A50, 3-ethylsulfonyl-2-[3-methyl-6-(trifluoromethyl)imidazo[4,5-c]pyridin-2-yl]quinoline-6-carbonitrile]
≥ 80%: percent effect (mortality, anti-feeding or growth inhibition) at 12.5 ppm [6] | mortality at 200 ppm [1] | mortality at 200 ppm [7] | percent effect (mortality or growth inhibition) at 200 ppm [2] | mortality at 200 ppm [8] | percent effect (mortality or growth inhibition) at 200 ppm [5] | percent effect (mortality or growth inhibition) at 200 ppm [4]
